Assay results as given in patent US20240239801A1, “PYRIMIDO[5,4,D]PYRIMIDINE COMPOUNDS, COMPOSITIONS COMPRISING THEM AND USES THEREOF” (Université de Montréal, priority 2021, published 2024).

Tests used:
HCT116 pERK = experiment: Phospho-ERK inhibition, AlphaLISA SureFire Ultra p-ERK 1/2; type: cell-based, human; details: FIG. 1; RAS-mutant HCT116 cells
Method in brief: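 Cells plated in RPMI-1640 with 5% FBS, held overnight, then exposed 1 h to ten-point compound dilutions (top 30 or 10 μM down to 0.33 nM; 0.5% DMSO). Lysates read for p-ERK1/2 (Thr202/Tyr204) by AlphaLISA; % inhibition relative to DMSO after subtracting a 1 μM trametinib background; IC50 from four-parameter fit.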

[1] = test system: RAS-mutant HCT-116 cells pERK/pMEK; experiment: Immunoblot analysis of pERK and pMEK; type: cell-based, human; details: FIG. 2, 1 h treatment
Procedure: For immunoblotting analysis, 500,000 HCT-116 cells were plated in 1 mL of complete RPMI-1640 growth medium in 24-well flat-bottomed transparent dishes (Costar). Cells were maintained overnight at 37° C. under 5% CO2 before treatment with compounds' dilution series for one hour. Cells were then washed once in PBS and lized in 250 μL of Igepal Lysis Buffer (50 mM Tris-HCl pH 7.5, 150 mM NaCl, 1% Igepal-CA630, 1 mM EDTA, 10% Glycerol) supplemented with Leupeptin, Aprotinin, PMSF, phosphatase inhibitor cocktail (Sigma) and Na3VO4 at 4° C. for 15 minutes with gentle rocking. Cell extracts were then cleared by centrifugation at 20,000 g at 4° C. for 10 minutes. Cleared lysates were then transferred on ice in fresh tubes and then boiled in sample loading buffer (100 mM Tris-HCl pH 6.8, 4% SDS, 0.2% bromophenol blue, 20% glycerol, 200 mM β-mercaptoethanol) for 5 minutes prior to fractionation by SDS-PAGE and transfer to nitrocellulose membranes (PALL). […]

With `CCCS(=O)(=O)Nc1ccc(F)c(C(=O)c2c[nH]c3ncc(Cl)cc23)c1F` [PLX4720, reference compound] the “YMIN of pERK IC50 dose response curve” value (HCT116 pERK) was roughly −600% and the “paradoxical induction of pERK or pMEK signaling (immunoblot)” value [1] was “induces the pathway”.
